This note sets out measurements from paper PMC10287183 (Antiviral Research, 2023).

Read-outs that look alike come from different tables or passages of the source.

One series deals with SARS-CoV2 D614G. The format is cell-based, SARS-CoV-2. The note with it: for EC90: read-out: EC90 (mean ± SD).
The next series is described as follows: in vitro. The note with it: human.
For another series, the system named is SARS-CoV-2 D614G. The format is cell-based.

As usually defined, the EC90 is the concentration needed for an effect of 90%. In the case of `CCN(CCO)CCCC(C)Nc1ccnc2cc(Cl)ccc12` (centres unmarked) [Hydroxychloroquin, Hydroxychloroquine], in the series with SARS-CoV2 D614G, the “Highest % of Virus Inhibition” value amounted to 98% and the concentration for an effect of 90% (EC90) turned out to be 18.9 ± 2.3 µM. In “in vitro”, this compound yielded a CC50 greater than 100 µM.

On to `O=[N+]([O-])c1ccc(O)c2ncccc12` [Nitroxoline, nitroxoline], for which the EC90 with SARS-CoV2 D614G is 9.9 ± 8 µM. In the series on SARS-CoV-2 D614G, the virus entry step entry is given as “inhibited this step similarly to HCQ”. The same compound had a CC50 in “in vitro” greater than 100 µM.

Consider CLIK-148 [CLIK 148], for which the “Highest % of Virus Inhibition” value in the series on SARS-CoV2 D614G ([…], highest concentration tested 100 μM (CLIK-148 60 μM)) is 64%. In addition, in the series on Huh7-hACE2, the CC50 is greater than 100 µM.
